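96-well plates; 48 h exposure; 5 concentrations. Endpoints by linear interpolation between flanking doses. Not reached: highest tested concentration assigned. The concentration for full growth arrest is given as TGI.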 Some results are limits rather than exact numbers.

For the first assay, the system named is 786-0 renal. Kind of assay: NCI tumour cell line growth inhibition, 48 h.
`CC1(C)S[C@H](c2ccccc2C(=O)O)N[C@@H]1CC(=O)O` yielded a TGI of over 100 µM.

In the case of `CCc1cccc(C)c1NC(=O)CCc1n[nH]c(=S)o1`, the TGI is over 100 µM.

In turn, `COC1CC(Br)(C#N)C1` (stereo unspecified) showed a TGI of over 100 µM.

As for `O=C(Nc1c(O)[nH]c(=S)[nH]c1=O)c1ccco1`, the TGI was over 100 µM.

Another assay concerns A498 renal. Kind of assay: NCI tumour cell line growth inhibition, 48 h.
`CC1(C)S[C@H](c2ccccc2C(=O)O)N[C@@H]1CC(=O)O` returned a TGI of over 100 µM.

On to `CCc1cccc(C)c1NC(=O)CCc1n[nH]c(=S)o1`, for which the TGI was over 100 µM.

For the compound `O=C(Nc1c(O)[nH]c(=S)[nH]c1=O)c1ccco1`, the TGI was over 100 µM.

A further assay deals with A549 NSCLC. Kind of assay: NCI tumour cell line growth inhibition, 48 h.
In the case of `CC1(C)S[C@H](c2ccccc2C(=O)O)N[C@@H]1CC(=O)O`, the TGI is over 100 µM.

For the compound `COC1CC(Br)(C#N)C1` (stereo unspecified), the TGI was over 100 µM.

`O=C(Nc1c(O)[nH]c(=S)[nH]c1=O)c1ccco1` gave a TGI of over 100 µM.

The next assay relates to ACHN renal. Kind of assay: NCI tumour cell line growth inhibition, 48 h.
The compound `CC1(C)S[C@H](c2ccccc2C(=O)O)N[C@@H]1CC(=O)O` showed a TGI of over 100 µM.

As to `CCc1cccc(C)c1NC(=O)CCc1n[nH]c(=S)o1`, the TGI is over 100 µM.

The compound `O=C(Nc1c(O)[nH]c(=S)[nH]c1=O)c1ccco1` registered a TGI of over 100 µM.

The next assay relates to CAKI-1 renal. Kind of assay: NCI tumour cell line growth inhibition, 48 h.
`CCc1cccc(C)c1NC(=O)CCc1n[nH]c(=S)o1` displayed a TGI of over 100 µM.

For `COC1CC(Br)(C#N)C1` (stereo unspecified), the TGI was over 100 µM.

With `O=C(Nc1c(O)[nH]c(=S)[nH]c1=O)c1ccco1`, the TGI is over 100 µM.

The test system of another assay is CCRF-CEM leukemia. Kind of assay: NCI tumour cell line growth inhibition, 48 h.
Turning to `CC1(C)S[C@H](c2ccccc2C(=O)O)N[C@@H]1CC(=O)O`, the TGI was over 100 µM.

As to `CCc1cccc(C)c1NC(=O)CCc1n[nH]c(=S)o1`, the TGI was over 100 µM.

With `O=C(Nc1c(O)[nH]c(=S)[nH]c1=O)c1ccco1`, the TGI was over 100 µM.

In a further assay the test system is COLO 205 colon. Kind of assay: NCI tumour cell line growth inhibition, 48 h.
Regarding `CC1(C)S[C@H](c2ccccc2C(=O)O)N[C@@H]1CC(=O)O`, the TGI is over 100 µM.

In the case of `CCc1cccc(C)c1NC(=O)CCc1n[nH]c(=S)o1`, the TGI is over 100 µM.

Compound `COC1CC(Br)(C#N)C1` (stereo unspecified) showed a TGI of over 100 µM.

`O=C(Nc1c(O)[nH]c(=S)[nH]c1=O)c1ccco1` returned a TGI of over 100 µM.

A further assay relates to DLD-1 colon. Kind of assay: NCI tumour cell line growth inhibition, 48 h.
As to `CC1(C)S[C@H](c2ccccc2C(=O)O)N[C@@H]1CC(=O)O`, the TGI is over 100 µM.

In turn, `CCc1cccc(C)c1NC(=O)CCc1n[nH]c(=S)o1` came in with a TGI of over 100 µM.

Consider `COC1CC(Br)(C#N)C1` (stereo unspecified), for which the TGI is over 100 µM.

The subject of the next assay is DMS 114 small cell lung. Kind of assay: NCI tumour cell line growth inhibition, 48 h.
The compound `CC1(C)S[C@H](c2ccccc2C(=O)O)N[C@@H]1CC(=O)O` returned a TGI of over 100 µM.

Take `COC1CC(Br)(C#N)C1` (stereo unspecified): the TGI was over 100 µM.

In the case of `O=C(Nc1c(O)[nH]c(=S)[nH]c1=O)c1ccco1`, the TGI is over 100 µM.

In the next assay the test system is DMS 273 small cell lung. Kind of assay: NCI tumour cell line growth inhibition, 48 h.
Take `CC1(C)S[C@H](c2ccccc2C(=O)O)N[C@@H]1CC(=O)O`: the TGI is over 100 µM.

Take `CCc1cccc(C)c1NC(=O)CCc1n[nH]c(=S)o1`: the TGI was over 100 µM.

A further assay relates to EKVX NSCLC. Kind of assay: NCI tumour cell line growth inhibition, 48 h.
`CC1(C)S[C@H](c2ccccc2C(=O)O)N[C@@H]1CC(=O)O` had a TGI of over 100 µM.

`CCc1cccc(C)c1NC(=O)CCc1n[nH]c(=S)o1` returned a TGI of over 100 µM.

As to `COC1CC(Br)(C#N)C1` (stereo unspecified), the TGI was over 100 µM.

The subject of another assay is HCC-2998 colon. Kind of assay: NCI tumour cell line growth inhibition, 48 h.
On to `CCc1cccc(C)c1NC(=O)CCc1n[nH]c(=S)o1`, for which the TGI is over 100 µM.

Consider `COC1CC(Br)(C#N)C1` (stereo unspecified), for which the TGI is over 100 µM.

For a further assay, the system named is HCT-116 colon. Kind of assay: NCI tumour cell line growth inhibition, 48 h.
In turn, `CC1(C)S[C@H](c2ccccc2C(=O)O)N[C@@H]1CC(=O)O` gave a TGI of over 100 µM.

Take `CCc1cccc(C)c1NC(=O)CCc1n[nH]c(=S)o1`: the TGI amounted to 31.1 µM.

In turn, `COC1CC(Br)(C#N)C1` (stereo unspecified) came in with a TGI of over 100 µM.

In the case of `O=C(Nc1c(O)[nH]c(=S)[nH]c1=O)c1ccco1`, the TGI is over 100 µM.

Another assay has as its system HCT-15 colon. Kind of assay: NCI tumour cell line growth inhibition, 48 h.
As to `CC1(C)S[C@H](c2ccccc2C(=O)O)N[C@@H]1CC(=O)O`, the TGI was over 100 µM.

Regarding `CCc1cccc(C)c1NC(=O)CCc1n[nH]c(=S)o1`, the TGI is over 100 µM.

For the compound `COC1CC(Br)(C#N)C1` (stereo unspecified), the TGI was over 100 µM.

In turn, `O=C(Nc1c(O)[nH]c(=S)[nH]c1=O)c1ccco1` came in with a TGI of over 100 µM.

The test system of a further assay is HL-60(TB) leukemia. Kind of assay: NCI tumour cell line growth inhibition, 48 h.
`CC1(C)S[C@H](c2ccccc2C(=O)O)N[C@@H]1CC(=O)O` returned a TGI of over 100 µM.

The compound `CCc1cccc(C)c1NC(=O)CCc1n[nH]c(=S)o1` returned a TGI of over 100 µM.

Consider `COC1CC(Br)(C#N)C1` (stereo unspecified), for which the TGI was over 100 µM.

Regarding `O=C(Nc1c(O)[nH]c(=S)[nH]c1=O)c1ccco1`, the TGI is over 100 µM.

Another assay has as its system HOP-18 NSCLC. Kind of assay: NCI tumour cell line growth inhibition, 48 h.
`CC1(C)S[C@H](c2ccccc2C(=O)O)N[C@@H]1CC(=O)O` yielded a TGI of over 100 µM.

The compound `CCc1cccc(C)c1NC(=O)CCc1n[nH]c(=S)o1` yielded a TGI of over 100 µM.

Consider `COC1CC(Br)(C#N)C1` (stereo unspecified), for which the TGI is over 100 µM.

Compound `O=C(Nc1c(O)[nH]c(=S)[nH]c1=O)c1ccco1` returned a TGI of over 100 µM.

The next assay deals with HOP-62 NSCLC. Kind of assay: NCI tumour cell line growth inhibition, 48 h.
`CC1(C)S[C@H](c2ccccc2C(=O)O)N[C@@H]1CC(=O)O`: the TGI is over 100 µM.

`CCc1cccc(C)c1NC(=O)CCc1n[nH]c(=S)o1` returned a TGI of over 100 µM.

Turning to `COC1CC(Br)(C#N)C1` (stereo unspecified), the TGI was over 100 µM.

`O=C(Nc1c(O)[nH]c(=S)[nH]c1=O)c1ccco1` yielded a TGI of over 100 µM.

In the next assay the test system is HOP-92 NSCLC. Kind of assay: NCI tumour cell line growth inhibition, 48 h.
Compound `CCc1cccc(C)c1NC(=O)CCc1n[nH]c(=S)o1` displayed a TGI of over 100 µM.

Turning to `COC1CC(Br)(C#N)C1` (stereo unspecified), the TGI was over 100 µM.

Compound `O=C(Nc1c(O)[nH]c(=S)[nH]c1=O)c1ccco1` showed a TGI of over 100 µM.

In another assay the test system is HT29 colon. Kind of assay: NCI tumour cell line growth inhibition, 48 h.
`CC1(C)S[C@H](c2ccccc2C(=O)O)N[C@@H]1CC(=O)O` came in with a TGI of over 100 µM.

Regarding `CCc1cccc(C)c1NC(=O)CCc1n[nH]c(=S)o1`, the TGI was over 100 µM.

In turn, `COC1CC(Br)(C#N)C1` (stereo unspecified) registered a TGI of over 100 µM.

Regarding `O=C(Nc1c(O)[nH]c(=S)[nH]c1=O)c1ccco1`, the TGI is over 100 µM.

The subject of a further assay is IGROV1 ovarian. Kind of assay: NCI tumour cell line growth inhibition, 48 h.
`CC1(C)S[C@H](c2ccccc2C(=O)O)N[C@@H]1CC(=O)O` yielded a TGI of over 100 µM.

As to `CCc1cccc(C)c1NC(=O)CCc1n[nH]c(=S)o1`, the TGI is over 100 µM.

Take `COC1CC(Br)(C#N)C1` (stereo unspecified): the TGI is over 100 µM.

In the case of `O=C(Nc1c(O)[nH]c(=S)[nH]c1=O)c1ccco1`, the TGI was over 100 µM.

The test system of another assay is K-562 leukemia. Kind of assay: NCI tumour cell line growth inhibition, 48 h.
In turn, `CC1(C)S[C@H](c2ccccc2C(=O)O)N[C@@H]1CC(=O)O` yielded a TGI of over 100 µM.

As to `CCc1cccc(C)c1NC(=O)CCc1n[nH]c(=S)o1`, the TGI is over 100 µM.

`COC1CC(Br)(C#N)C1` (stereo unspecified): the TGI was over 100 µM.

`O=C(Nc1c(O)[nH]c(=S)[nH]c1=O)c1ccco1` showed a TGI of over 100 µM.

In a further assay the test system is KM12 colon. Kind of assay: NCI tumour cell line growth inhibition, 48 h.
`CC1(C)S[C@H](c2ccccc2C(=O)O)N[C@@H]1CC(=O)O`: the TGI is over 100 µM.

`CCc1cccc(C)c1NC(=O)CCc1n[nH]c(=S)o1` returned a TGI of over 100 µM.

`COC1CC(Br)(C#N)C1` (stereo unspecified) yielded a TGI of over 100 µM.

In the case of `O=C(Nc1c(O)[nH]c(=S)[nH]c1=O)c1ccco1`, the TGI was over 100 µM.

A further assay has as its system KM20L2 colon. Kind of assay: NCI tumour cell line growth inhibition, 48 h.
Consider `CCc1cccc(C)c1NC(=O)CCc1n[nH]c(=S)o1`, for which the TGI is over 100 µM.

The compound `COC1CC(Br)(C#N)C1` (stereo unspecified) registered a TGI of over 100 µM.

`O=C(Nc1c(O)[nH]c(=S)[nH]c1=O)c1ccco1` gave a TGI of over 100 µM.

Another assay concerns LOX IMVI melanoma. Kind of assay: NCI tumour cell line growth inhibition, 48 h.
For `CC1(C)S[C@H](c2ccccc2C(=O)O)N[C@@H]1CC(=O)O`, the TGI is over 100 µM.

Take `O=C(Nc1c(O)[nH]c(=S)[nH]c1=O)c1ccco1`: the TGI is over 100 µM.

The subject of the next assay is LXFL 529 NSCLC. Kind of assay: NCI tumour cell line growth inhibition, 48 h.
In turn, `CC1(C)S[C@H](c2ccccc2C(=O)O)N[C@@H]1CC(=O)O` registered a TGI of over 100 µM.

Regarding `CCc1cccc(C)c1NC(=O)CCc1n[nH]c(=S)o1`, the TGI was over 100 µM.

Turning to `O=C(Nc1c(O)[nH]c(=S)[nH]c1=O)c1ccco1`, the TGI was over 100 µM.

The test system of a further assay is M14 melanoma. Kind of assay: NCI tumour cell line growth inhibition, 48 h.
Take `CC1(C)S[C@H](c2ccccc2C(=O)O)N[C@@H]1CC(=O)O`: the TGI was over 100 µM.

Compound `CCc1cccc(C)c1NC(=O)CCc1n[nH]c(=S)o1` gave a TGI of over 100 µM.

The compound `COC1CC(Br)(C#N)C1` (stereo unspecified) registered a TGI of over 100 µM.

As for `O=C(Nc1c(O)[nH]c(=S)[nH]c1=O)c1ccco1`, the TGI was over 100 µM.

The next assay deals with M19-MEL melanoma. Kind of assay: NCI tumour cell line growth inhibition, 48 h.
`CC1(C)S[C@H](c2ccccc2C(=O)O)N[C@@H]1CC(=O)O` yielded a TGI of over 100 µM.

In turn, `CCc1cccc(C)c1NC(=O)CCc1n[nH]c(=S)o1` showed a TGI of over 100 µM.

`COC1CC(Br)(C#N)C1` (stereo unspecified) yielded a TGI of over 100 µM.

In turn, `O=C(Nc1c(O)[nH]c(=S)[nH]c1=O)c1ccco1` showed a TGI of over 100 µM.

Another assay concerns MALME-3M melanoma. Kind of assay: NCI tumour cell line growth inhibition, 48 h.
Turning to `CCc1cccc(C)c1NC(=O)CCc1n[nH]c(=S)o1`, the TGI was over 100 µM.

Consider `COC1CC(Br)(C#N)C1` (stereo unspecified), for which the TGI was over 100 µM.

In turn, `O=C(Nc1c(O)[nH]c(=S)[nH]c1=O)c1ccco1` gave a TGI of over 100 µM.

In the next assay the test system is MOLT-4 leukemia. Kind of assay: NCI tumour cell line growth inhibition, 48 h.
For the compound `CC1(C)S[C@H](c2ccccc2C(=O)O)N[C@@H]1CC(=O)O`, the TGI is over 100 µM.

Regarding `CCc1cccc(C)c1NC(=O)CCc1n[nH]c(=S)o1`, the TGI is over 100 µM.

The values are drawn from PubChem BioAssay (NCI).
